Experimental findings from patent publication US10544117B2, “5-hydroxytryptamine receptor 7 activity modulators and their method of use” (Temple University—Of the Commonwealth System of Higher …, priority 2014, dated 2020) are described below.

The target of this assay is Serotonin 5HT7 receptors (Homo sapiens (Human), UniProt P34969). Briefly: Radiolabel Binding Studies for Serotonin 5HT7 receptors. Conditions: for IC50: membranes of cells expressing recombinant 5HT7 receptors; for inhibition at 10 µM: read-out: 5-HT7 % inhib @ 10 uM. How it is done: Radiolabel Binding Studies for Serotonin 5HT7 receptors, method 1:
Eleven dilutions (5× assay concentration) of the compound of the disclosure and chlorpromazine are prepared in the Assay Buffer by serial dilution to yield final corresponding assay concentrations ranging from 10 pM to 10 μM.
A stock concentration of 5 nM [^3H]LSD (lysergic acid diethyl amide) is prepared in 50 mM Tris-HCl, 10 mM MgCl2, 1 mM EDTA, pH 7.4 (Assay Buffer). Aliquots (50 μl) of radioligand are dispensed into the wells of a 96-well plate containing 100 μl of Assay Buffer. Duplicate 50-μl aliquots of the compound of the disclosure test and chlorpromazine positive control reference compound serial dilutions are added.
Membrane fractions of cells expressing recombinant 5HT7 receptors (50 μL) are dispensed into each well. The membranes are prepared from stably transfected cell lines expressing 5HT7 receptors cultured on 10-cm plates by harvesting PBS-rinsed monolayers, resuspending and lysing in chilled, hypotonic 50 mM Tris-HCl, pH 7.4, centrifuging at 20,000×g, decanting the supernatant and storing at −80° C.; the membrane preparations are resuspended in 3 ml of chilled Assay Buffer and homogenized by several passages through a 26 gauge needle before using in the assay.
The 250-μl reactions are incubated at room temperature for 1.5 hours, then harvested by rapid filtration onto 0.3% polyethyleneimine-treated, 96-well filter mats using a 96-well Filtermate harvester. Four rapid 500-μl washes are performed with chilled Assay Buffer to reduce non-specific binding. The filter mats are dried, then scintillant is added to the filters and the radioactivity retained on the filters is counted in a Microbeta scintillation counter.
Raw data (dpm) representing total radioligand binding (i.e., specific+non-specific binding) are plotted as a function of the logarithm of the molar concentration of the competitor (i.e., test or reference compound).
Radiolabel Binding Studies for Serotonin 5-HT7 receptors, method 2:
A stock concentration of 5 nM [^3H]-5-Hydroxytryptamine ([^3H]-5HT) is prepared in 50 mM Tris-HCl, 10 mM MgCl2, 1 mM EDTA, pH 7.4 (Assay Buffer). Aliquots (50 μl) of radioligand are dispensed into the wells of a 96-well plate containing 100 μl of Assay Buffer. Duplicate 50-μl aliquots of the compound of the disclosure test and chlorpromazine positive control reference compound serial dilutions are added.

Turning to `O=C1OC(CCN2CCN(c3ccc(Cl)cn3)CC2)CC12CCCCC2` (centres unmarked) [Entry 160145], the IC50 was 33 nM. For the same compound, the “5-HT7 % inhib @ 10 uM” value (single concentration of 10 uM, percent inhibition of radioligand binding) is 96.7%.
Take `O=C1OC(CCN2CCN(c3ccc4[nH]ccc4c3)CC2)CC12CCCCC2` (centres unmarked) [Entry 160146]: the IC50 turned out to be 65.3 nM and the inhibition at 10 µM amounted to 97.9%.
With `O=C1OC(CCN2CCN(c3ccc4[nH]ccc4c3)CC2)CC12CCCC2` (centres unmarked) [Entry 160147], the inhibition at 10 µM came out at 9%.
`O=C1OC(CCN2CCN(c3ccc4[nH]ccc4c3)CC2)CC12CCC2` (centres unmarked) [Entry 160148]: the half-maximal inhibitory concentration (IC50) stood at 88 nM and the inhibition at 10 µM was determined as 96.5%.
The corresponding values for `Nc1cc(N2CCN(CCC3CC4(CCCCC4)C(=O)O3)CC2)ccc1[N+](=O)[O-]` (centres unmarked) [Entry 160149] are 500 nM and 84.7%.
On the same counts, the results for `O=C1OC(CCN2CCN(c3ccc4[nH]c(=O)[nH]c4c3)CC2)CC12CCCCC2` (centres unmarked) [Entry 160150] are 1230 nM and 76.9%.
As for `O=C1OC(CCN2CCN(c3ccc4[nH]c(=O)[nH]c4c3)CC2)CC12CCCC2` (centres unmarked) [Entry 160151], the inhibition at 10 µM was 35.9%.
On to `O=C1OC(CCN2CCN(c3ccc4[nH]c(=O)[nH]c4c3)CC2)CC12CCC2` (centres unmarked) [Entry 160152], for which the half-inhibitory concentration (IC50) was 2250 nM and the inhibition at 10 µM was determined as 59.5%.
On to `O=C1OC(CCN2CCN(c3ccnc(Cl)c3)CC2)CC12CCCCC2` (centres unmarked) [Entry 160153], for which the half-maximal inhibitory concentration (IC50) amounted to 4360 nM and the inhibition at 10 µM came to 58.2%.
With `CS(=O)(=O)Nc1ccc(N2CCN(CCC3CC4(CCCC4)C(=O)O3)CC2)cc1` (centres unmarked) [Entry 230008], the inhibition at 10 µM came out at 33.2%.
On the same count and under the same terms, the figure for `O=C1OC(CCN2CCN(c3cc(Cl)ccn3)CC2)CC12CCCC2` (centres unmarked) [Entry 230010] is 33.5%.
Still for that read-out and setting: the figure for `O=C1OC(CCN2CCN(c3ccnc(Cl)c3)CC2)CC12CCCC2` (centres unmarked) [Entry 230011] is 40.3%.
As to `N#Cc1ccnc(N2CCN(CCC3CC4(CCCC4)C(=O)O3)CC2)c1` (centres unmarked) [Entry 230012], the IC50 turned out to be 436 nM and the inhibition at 10 µM came to 76.6%.
The corresponding values for `COc1ccccc1N1CCN(CCC2CC3(CCCC3)C(=O)O2)CC1` (centres unmarked) [Entry 230013] are 146 nM and 90.9%.
Take `O=C1OC(CCN2CCN(c3ccccc3O)CC2)CC12CCCC2` (centres unmarked) [Entry 230014]: the IC50 came to 78 nM and the inhibition at 10 µM is 91.5%.
On to `COc1ccccc1N1CCN(CCC2CC3(CCC3)C(=O)O2)CC1` (centres unmarked) [Entry 230015], for which the IC50 came out at 319 nM and the inhibition at 10 µM was 83.4%.
On the same counts, the results for `O=C1OC(CCN2CCN(c3ccccc3O)CC2)CC12CCC2` (centres unmarked) [Entry 230016] are 299 nM and 84.7%.
The corresponding values for `COc1ccc(N2CCN(CC[C@@H]3CC(C)(C)C(=O)O3)CC2)cc1` [Entry 230039] are 10000 nM and 42.6%.
The corresponding values for `COc1ccc(N2CCN(CC[C@H]3CC(C)(C)C(=O)O3)CC2)cc1` [Entry 230046] are 10000 nM and 53.5%.
For `CCC1(CC)CC(CCCN2CCN(c3ccccc3)CC2)OC1=O` (centres unmarked) [Entry 230057], the 50% inhibitory concentration (IC50) is 55 nM and the inhibition at 10 µM amounted to 98.5%.
The corresponding values for `CCC1(CC)CC(CCCN2CCN(c3ccc(C#N)cc3)CC2)OC1=O` (centres unmarked) [Entry 230058] are 965 nM and 78.6%.
On the same counts, the results for `CCC1(CC)CC(CCCN2CCN(c3ccc(O)cc3)CC2)OC1=O` (centres unmarked) [Entry 230059] are 353 nM and 88.8%.
On the same counts, the results for `CCC1(CC)CC(CCCN2CCN(c3ccc(OC)cc3)CC2)OC1=O` (centres unmarked) [Entry 230060] are 10000 nM and 43.6%.
Turning to `CCC1(CC)CC(CCCN2CCN(c3ccc(C)cc3)CC2)OC1=O` (centres unmarked) [Entry 230061], the 50% inhibitory concentration (IC50) amounted to 168 nM and the inhibition at 10 µM was 94.9%.
The corresponding values for `CCC1(CC)CC(CCCN2CCN(c3ccccc3C(C)C)CC2)OC1=O` (centres unmarked) [Entry 230062] are 12 nM and 98.6%.
The corresponding values for `CCC1(CC)CC(CCCN2CCN(c3ccccn3)CC2)OC1=O` (centres unmarked) [Entry 230063] are 93 nM and 98.9%.
On the same counts, the results for `CCC1(CC)CC(CCN2CCN(c3ccc4nc(C(F)(F)F)[nH]c4c3)CC2)OC1=O` (centres unmarked) [Entry 230068] are 10000 nM and 44%.
On to `CCC1(CC)CC(CCN2CCN(c3ccc4nc(C)[nH]c4c3)CC2)OC1=O` (centres unmarked) [Entry 230069], for which the concentration for half-maximal inhibition (IC50) was determined as 10000 nM.
As to `CCC1(CC)CC(CCN2CCc3ccc(Cl)cc3C2)OC1=O` (centres unmarked) [Entry 230070], the IC50 was 7.5 nM and the inhibition at 10 µM turned out to be 100%.
The corresponding values for `CCC1(CC)CC(CCN2CCc3ccc(F)cc3C2)OC1=O` (centres unmarked) [Entry 230071] are 9.9 nM and 99.3%.
Turning to `CCC1(CC)C[C@H](CCN2CCN(c3ccncc3)CC2)OC1=O` [Entry 230083], the half-maximal inhibitory concentration (IC50) worked out at 5820 nM and the inhibition at 10 µM was determined as 51%.

Broadly, the IC50 is the concentration that gives 50% inhibition.
